The record followed here is patent US5296480A, “Angiotensin II receptor blocking 2,3,6-substituted 5,6,7,8-tetra-hydro-pyrido[4,3]pyrimidin-4(3H)-ones” (American Cyanamid Company, priority 1993, dated 1994).

This assay deals with T1, Angiotensin II Receptor (Bos taurus, UniProt P25104).
T1 construct: added in 20 ul to wells before the introduction of tissue membranes; from tissue; host or cells: microsomal membranes of an unnamed tissue
T1 sequence (P25104 1-359): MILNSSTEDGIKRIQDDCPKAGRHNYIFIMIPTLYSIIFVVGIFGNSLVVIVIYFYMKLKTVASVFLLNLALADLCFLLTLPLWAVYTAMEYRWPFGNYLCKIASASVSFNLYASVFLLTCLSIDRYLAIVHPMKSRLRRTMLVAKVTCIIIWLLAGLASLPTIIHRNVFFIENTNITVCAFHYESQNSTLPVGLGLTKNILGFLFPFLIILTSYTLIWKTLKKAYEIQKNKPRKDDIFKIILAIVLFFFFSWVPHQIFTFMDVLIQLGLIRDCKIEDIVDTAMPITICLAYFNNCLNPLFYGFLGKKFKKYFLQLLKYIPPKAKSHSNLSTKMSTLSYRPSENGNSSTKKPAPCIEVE
Put plainly: Receptor Binding Assay: displacement of [^125 I](Sar^1,Ile^8)AngII from microsomal membranes. The following applies: pH 7.4, 60 min, room temperature. Here is the method:
Binding of [^125 I](Sar^1, Ile^8)AngII
The binding of [^125 I](Sar^1,Ile^8)AngII to microsomal membranes is initiated by the addition of reconstituted membranes (1:10 vols.) in freshly made 50.0 mMTris.HCl buffer, pH 7.4 containing 0.25% heat inactivated bovine serum albumin (BSA): 80 ul membrane protein (10 to 20 ug/assay) to wells already containing 100 ul of incubation buffer (as described above) and 20 ul [^125 I](Sar^1,Ile^8)AngII (Specific Activity, 2200 Ci/mmole). Non-specific binding is measured in the presence of 1.0 uM unlabeled (Sar^1,Ile^8 )AngII, added in 20 ul volume. Specific binding for [^125 I](Sar^1,Ile^8) AngII is greater than 90%. In competition studies, experimental compounds are diluted in dimethylsulfoxide (DMSO) and added in 20 ul to wells before the introduction of tissue membranes. This concentration of DMSO is found to have no negative effects on the binding of [^125 I](Sar^1,Ile^8) AngII to the membranes. Assays are performed in triplicate. […] Presoaking the filter sheet in 0.1% polyethylenemine in normal saline (PEI/Saline) greatly reduces the radioactivity retained by the filter blanks. […] The filters are removed from the filter grid and counted in a Parkard® Cobra Gamma Counter for 1 min. […] The binding data are analyzed by the non-linear interactive "LUNDON-1" program (LUNDON SOFTWARE Inc., Cleveland, Ohio U.S.A.). […]

In turn, `CCCCc1nc2c(c(=O)n1Cc1ccc(-c3ccccc3-c3nn[nH]n3)cc1)CN(C(=O)c1cccnc1)CC2` [Example 10] had an IC50 of 51 nM.
